Test results published in paper PMC9269301, “Phytochemical Analysis, Antioxidant, Antimicrobial, and Cytotoxic Activity of Different Extracts of Xanthoparmelia stenophylla Lichen from Stara Planina, Serbia” (Plants, 2022).
Marks after values point to notes of the source that are not given here.

What was measured:
[1] = DPPH radical scavenging activity; format: biochemical; conditions: mean ± SD, triplicate
Experimental: All chemicals for the antioxidant activity test were purchased from Sigma Aldrich. All measurements were conducted in triplicate, and a Shimadzu UV-1800 spectrophotometer was used for all measurements during antioxidant activity experiments. The IC50 value was used for comparing different radical scavenging effects between investigated extracts, isolated compounds, and positive controls. […] [71] with certain modifications. […] The solution was prepared ex tempore and stored in a tinted bottle in the refrigerator until the experiments were performed. […] The reaction mixture was vortexed and allowed to incubate in the dark for one hour, after which the absorbance was measured at 517 nm relative to the blank. […] Ac stands for absorbance of the control (which contains all reagents, except the tested extract or compound), and As is the absorbance of the sample.

[2] = Hydroxyl radical scavenging activity (2-deoxyribose); format: biochemical; conditions: mean ± SD, triplicate
Experimental: All chemicals for the antioxidant activity test were purchased from Sigma Aldrich. All measurements were conducted in triplicate, and a Shimadzu UV-1800 spectrophotometer was used for all measurements during antioxidant activity experiments. The IC50 value was used for comparing different radical scavenging effects between investigated extracts, isolated compounds, and positive controls. The ability to inhibit non-site-specific peroxidation mediated by hydroxyl radicals for […], and XSH was determined using the method previously described in the literature. During the experiment, in a reaction mixture that contained 500 μL of 5.6 mM 2-deoxy-D-ribose in KH2PO4-NaOH buffer (50 mM, pH 7.4), 100 μL of 1.0 mM aqueous ascorbic acid, 100 μL of 1.0 mM H2O2, and 200 μL of premixed solution of 100 μM FeCl3 and […] EDTA (1:1 v/v), 100 μL of extract dissolved in water was added. The tubes were vigorously shaken, vortexed, and incubated for 30 min at 50 °C. […] The mixture was vortexed again and heated in a water bath for 30 min at 50 °C. […] Ac stands for absorbance of the control (which contains all reagents, except the tested extract or compound), and As is the absorbance of the sample.

C. albicans (isolate) = assay: Microdilution with resazurin, antifungal; format: cell-based, Candida albicans; conditions: extracts and usnic acid
Experimental: (§1) The tested methanol, acetone, and n-hexane extracts, as well as the component (usnic acid) of X. stenophylla, were dissolved in 10% dimethyl sulfoxide (DMSO) and then diluted into the nutrient liquid medium. DMSO was obtained from Acros Organics (Fair Lawn, NJ, USA). Resazurin was obtained from Alfa Aesar GmbH & Co. (KG, Karlsruhe, Germany).
(§2) The antimicrobial activity of the extracts and components was tested against 19 microorganisms. The experiment involved 15 strains of bacteria (i.e., 6 standard strains: Staphylococcus aureus ATCC 6538, Bacillus subtilis ATCC 6633, Proteus mirabilis ATCC 12453, Pseudomonas aeruginosa ATCC 27853, Klebsiella pneumoniae ATCC 70063, and Escherichia coli ATCC 25922; 9 isolates: Staphylococcus aureus, Escherichia coli, Salmonella enterica, Salmonella Typhimurium, Proteus mirabilis, Klebsiella pneumoniae, Pseudomonas aeruginosa, Bacillus subtilis, and Bacillus cereus). In addition, four fungal strains (i.e., two standard strains: Candida albicans ATCC 10231 and Aspergillus niger ATCC 16888; two isolates: Saccharomyces cerevisiae and Candida albicans) were tested. All isolates were a generous gift from the Institute of Public Health, Kragujevac. The other microorganisms were provided from the collection held by the Microbiology Laboratory Faculty of Science, University of Kragujevac.
(§3) The bacterial suspensions were prepared by the direct colony method. The turbidity of the initial suspension was adjusted using a densitometer (DEN-1, BioSan, Riga, Latvia). When adjusted to the turbidity of the 0.5 McFarland’s standard (Andrews, 2005) the bacteria suspension contained approximately 10^8 colony-forming units (CFU)/mL, and the suspension of yeast contained 10^6 CFU/mL; 1:100 dilutions of the initial suspension were additionally prepared in sterile 0.85% saline. The suspensions of fungal spores were prepared by gentle stripping of spores from slopes with growing mycelia. The resulting suspensions were 1:1000 diluted in sterile 0.85% saline.
(§4) Antimicrobial activity was tested by determining the minimum inhibitory concentrations (MICs) and minimum microbicidal concentrations (MBCs) using the microdilution plate method with resazurin [56]. The 96-well plates were prepared by dispensing 100 μL of Mueller–Hinton broth for bacteria and Sabouard broth for fungi into each well. A 10 μL aliquot from the stock solution of the tested extract or component was added to the first row of the plate. Then, two-fold serial dilutions were performed using a multichannel pipette. The obtained concentration range was from 10 to 0.08 mg/mL. The method is described in detail in [76].
(§5) Each test included growth control and sterility control.
(§6) Minimum microbicidal concentrations were determined by plating 10 μL of samples from wells where no indicator color change or no mycelia growth was recorded on a nutrient agar medium. At the end of the incubation period, the lowest concentration with no growth (no colony) was defined as the minimum microbicidal concentration.

C. albicans ATCC 10231 = assay: Microdilution with resazurin, antifungal; format: cell-based, Candida albicans; conditions: extracts and usnic acid
Experimental: as §1, §2, §3, §4, §5, §6

A. niger ATCC 16888 = assay: Microdilution with resazurin, antifungal; format: cell-based, Aspergillus niger; conditions: extracts and usnic acid
Experimental: as §1, §2, §3, §4, §5, §6

P. aeruginosa biofilm = assay: Biofilm metabolic activity by resazurin; format: cell-based, Pseudomonas aeruginosa; conditions: Figure 3
Experimental: (§7) Resazurin (7-hydroxy-3H-phenoxazin-3-one-10-oxide) is a viability dye used to assess the metabolic activity of biofilms. After incubation at 37 °C/48 h, a volume of 10 µL of resazurin indicator solution was added to each well. Plates were incubated in the dark for 3 h at 37 °C. The OD was measured at 590 nm using an enzyme-linked immunosorbent assay (ELISA) plate reader. In addition, the color change from purple to pink indicated the metabolic activity of the formed biofilm.

[3] = test system: S. aureus ATCC 6538 biofilm; assay: Biofilm metabolic activity by resazurin; format: cell-based, Staphylococcus aureus; conditions: at some concentrations, Figure 4
Experimental: as §7

[4] = test system: MRC-5 cells (nontransformed human lung fibroblast); assay: MTT assay; format: cell-based
[5] = test system: HCT 116 cells (colon cancer); assay: MTT assay; format: cell-based, human
[6] = test system: MDA-MB 231 cells (breast cancer); assay: MTT assay; format: cell-based, human; conditions: data not shown

## usnic acid
[1]
  DPPH Radical Scavenging Activity (IC50): 64.92 ± 1.06 ^a,b,c,d µg/mL
[2]
  Hydroxyl Radical Scavenging Activity (IC50): 120.05 ± 0.85 ^a,b,c,d µg/mL
C. albicans (isolate)
  MFC: <10000 µg/mL
  MIC: 10000 µg/mL
C. albicans ATCC 10231
  MFC: <10000 µg/mL
  MIC: 10000 µg/mL
A. niger ATCC 16888
  MFC: <10000 µg/mL
  MIC: 10000 µg/mL
P. aeruginosa biofilm
  Metabolic activity of biofilm compared to the growth control: higher
[3]
  Metabolic activity of biofilm compared to the growth control: lower
[4]; MRC-5, 24 h
  GI50 (50% growth inhibition): 42.97 ± 1.56 µg/mL
  IC50: 66.18 ± 1.72 µg/mL
  TGI (total growth inhibition): >100 µg/mL
[4]; MRC-5, 48 h
  GI50 (50% growth inhibition): 41.31 ± 0.56 µg/mL
  IC50: 78.54 ± 0.87 µg/mL
  TGI (total growth inhibition): 93.25 ± 0.08 µg/mL
[4]; MRC-5, 72 h
  GI50 (50% growth inhibition): 36.73 ± 0.92 µg/mL
  IC50: 53.14 ± 1.04 µg/mL
  TGI (total growth inhibition): 89.15 ± 0.25 µg/mL
[5]; HCT 116, 24 h
  GI50 (50% growth inhibition): 41.94 ± 3.12 µg/mL
  IC50: >100 µg/mL
  TGI (total growth inhibition): 79.12 ± 1.18 µg/mL
[5]; HCT 116, 48 h
  GI50 (50% growth inhibition): 27.21 ± 1.94 µg/mL
  IC50: 83.99 ± 4.22 µg/mL
  TGI (total growth inhibition): 63.58 ± 0.90 µg/mL
[5]; HCT 116, 72 h
  GI50 (50% growth inhibition): 15.87 ± 2.89 µg/mL
  IC50: 23.79 ± 2.10 µg/mL
  TGI (total growth inhibition): 64.91 ± 1.44 µg/mL
[6]
  Overall inhibitory effect (MTT), in words: of minor importance
